The values that follow come from PubChem BioAssay AID624129 (Sanford-Burnham Center for Chemical Genomics, 2012).

What all share (experiment): CXCR6 receptor antagonists, dose response, cell-based, beta-arrestin, DiscoveRx, APJ panel, uHTS hits (AID 624129)
Assay [1] has as its target Apelin receptor (Homo sapiens) (UniProt P35414). As to conditions: CXCR6 beta-arrestin (DiscoveRx) antagonist cell assay, APJ.
Assay [2] concerns the target C-X-C chemokine receptor type 6 (Homo sapiens) (UniProt O00574). As to conditions: CXCR6 beta-arrestin (DiscoveRx) antagonist cell assay.
Assay [3] deals with Beta-galactosidase (Escherichia coli) (UniProt Q8VNN2). As to conditions: CXCR6 beta-arrestin (DiscoveRx) antagonist cell assay, b-galactosidase; for IC50: dose range 1; for pIC50: dose range 1, mean IC50 across replicates.
In assay [4] the target is C-C chemokine receptor type 6 (Homo sapiens) (UniProt P51684). Conditions: CXCR6 beta-arrestin (DiscoveRx) antagonist cell assay.
Setting [5] is: dose range 1, mean IC50 across replicates.
The mark [6] stands for this setting: CXCR6, dose range 1, mean IC50 across replicates.
[7] abbreviates: CCR6, dose range 1, mean IC50 across replicates.

pIC50: −log10 of the molar value. The source made the active and inactive calls. The rule behind the calls is not given here.

Sequence of Beta-galactosidase (Escherichia coli) (Q8VNN2 whole entry, looked up): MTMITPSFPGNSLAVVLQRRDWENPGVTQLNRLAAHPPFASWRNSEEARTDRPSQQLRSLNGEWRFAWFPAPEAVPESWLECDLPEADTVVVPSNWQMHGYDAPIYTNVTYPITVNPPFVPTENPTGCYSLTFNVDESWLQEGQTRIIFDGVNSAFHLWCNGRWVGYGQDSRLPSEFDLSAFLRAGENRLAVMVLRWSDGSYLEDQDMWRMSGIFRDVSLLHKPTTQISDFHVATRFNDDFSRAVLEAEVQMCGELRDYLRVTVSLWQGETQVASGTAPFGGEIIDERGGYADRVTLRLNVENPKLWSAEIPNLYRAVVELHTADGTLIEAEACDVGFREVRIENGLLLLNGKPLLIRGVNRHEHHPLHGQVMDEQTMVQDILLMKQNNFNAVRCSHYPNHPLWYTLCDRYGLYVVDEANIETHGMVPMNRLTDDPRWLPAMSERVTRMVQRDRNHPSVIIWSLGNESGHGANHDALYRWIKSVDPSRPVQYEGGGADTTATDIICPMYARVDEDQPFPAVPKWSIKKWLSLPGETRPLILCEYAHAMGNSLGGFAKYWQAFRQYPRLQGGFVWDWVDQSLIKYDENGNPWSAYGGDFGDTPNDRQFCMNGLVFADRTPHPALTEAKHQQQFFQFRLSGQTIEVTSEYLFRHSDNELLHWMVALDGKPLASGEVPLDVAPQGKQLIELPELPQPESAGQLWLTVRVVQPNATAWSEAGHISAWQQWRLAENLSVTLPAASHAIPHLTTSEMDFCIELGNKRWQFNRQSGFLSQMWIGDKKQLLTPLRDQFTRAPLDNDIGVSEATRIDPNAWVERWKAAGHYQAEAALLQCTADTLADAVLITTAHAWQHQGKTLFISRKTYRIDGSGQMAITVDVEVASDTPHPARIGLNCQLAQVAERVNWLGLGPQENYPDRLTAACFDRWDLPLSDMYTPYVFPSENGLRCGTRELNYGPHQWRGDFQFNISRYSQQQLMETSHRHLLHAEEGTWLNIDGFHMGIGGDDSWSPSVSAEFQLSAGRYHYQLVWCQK
Sequence of C-X-C chemokine receptor type 6 (Homo sapiens) (O00574 whole entry, looked up): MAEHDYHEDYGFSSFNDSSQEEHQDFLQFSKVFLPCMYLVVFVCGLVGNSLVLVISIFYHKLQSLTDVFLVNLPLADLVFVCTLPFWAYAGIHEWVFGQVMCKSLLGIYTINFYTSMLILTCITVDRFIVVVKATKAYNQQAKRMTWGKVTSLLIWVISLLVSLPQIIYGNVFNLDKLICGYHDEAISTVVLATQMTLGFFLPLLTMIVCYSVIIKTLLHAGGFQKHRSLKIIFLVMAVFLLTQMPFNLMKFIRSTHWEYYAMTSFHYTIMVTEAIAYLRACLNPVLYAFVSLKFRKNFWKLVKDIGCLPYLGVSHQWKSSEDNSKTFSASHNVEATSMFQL

Turning to `C=CS(=O)(=O)c1ccc(Oc2ccc(S(=O)(=O)C=C)cc2)cc1`, the pIC50 in assay [1] (dose range 1) is 4.88; in assay [1] (setting [5]), 4.91; in assay [1] (run 2, dose range 1), 5.00; in assay [1] (run 3, dose range 1) it was 4.86; in assay [2] (CXCR6, dose range 1), 4.99; in assay [2] (setting [6]) it was 4.97. Besides, the negative logarithm of the IC50 (pIC50) in assay [2] (CXCR6, run 1, dose range 2) was 5.06; in assay [2] (CXCR6, run 2, dose range 1), 4.91; in assay [2] (CXCR6, run 2, dose range 2), 4.93; in assay [3], below 4.10; in assay [4] (CCR6, dose range 1), 5.12; in assay [4] (setting [7]), 5.14. The molecule also had a pIC50 in assay [4] (CCR6, run 2, dose range 1) of 5.16. The IC50 in assay [3] is > 80 µM (inactive).

As for `O=c1cc(CSc2ccc(Cl)cc2)nc(-c2ccccn2)[nH]1`, the negative logarithm of the IC50 (pIC50) in assay [1] (dose range 1) is 5.45; in assay [1] (setting [5]), 5.42; in assay [1] (run 2, dose range 1), 5.43; in assay [1] (run 3, dose range 1), 5.38; in assay [2] (CXCR6, dose range 1), 5.36; in assay [2] (setting [6]), 5.43. Also, the pIC50 in assay [2] (CXCR6, run 1, dose range 2) was 5.46; in assay [2] (CXCR6, run 2, dose range 1), 5.43; in assay [2] (CXCR6, run 2, dose range 2), 5.49; in assay [3] it was below 4.10; in assay [4] (CCR6, dose range 1), 5.54; in assay [4] (setting [7]), 5.36. In assay [4] (CCR6, run 2, dose range 1), this molecule had a negative logarithm of the IC50 (pIC50) of 5.23. In assay [3], the IC50 is > 80 µM (inactive).

As for `COc1ccc(C(=O)/C=C/C(=O)N(CC(=O)NC2CCCCC2)Cc2ccccc2)c(O)c1`, the pIC50 in assay [1] (setting [5]) was below 4.10; in assay [1] (run 2, dose range 1) it was below 4.10; in assay [1] (run 3, dose range 1), below 4.10; in assay [2] (setting [6]) it was below 4.10; in assay [2] (CXCR6, run 2, dose range 1), below 4.10; in assay [3] it was below 4.10. Besides, the pIC50 is below 4.10 in assay [4] (setting [7]) and below 4.10 in assay [4] (CCR6, run 2, dose range 1). Further, the IC50 in assay [2] (CXCR6, dose range 1) is > 80 µM (inactive); in assay [3] it was > 80 µM (inactive). In assay [2] (CXCR6, run 1, dose range 2, at 80 µM (top of the series)), this molecule displayed an inhibition of 9.34%.

One may read the pIC50 as −log10 of the IC50, conventionally taken in molar units. Broadly, the IC50 is the concentration at which inhibition is half-maximal. A word on the inhibition: it is how much of the control response was suppressed.
